Experimental data from ChEMBL document CHEMBL5465560, “Selectivity Literature for EUbOPEN Chemogenomic Library” (2024).

Experiments:
[1] = target: T1, Mitogen-activated protein kinase kinase kinase kinase 3 (Homo sapiens) (UniProt Q8IVH8); assay: Selectivity interaction (KinomeScan (DiscoverX)) EUB0000229b MAP4K3; details: at 10 µM
T1 sequence (whole entry): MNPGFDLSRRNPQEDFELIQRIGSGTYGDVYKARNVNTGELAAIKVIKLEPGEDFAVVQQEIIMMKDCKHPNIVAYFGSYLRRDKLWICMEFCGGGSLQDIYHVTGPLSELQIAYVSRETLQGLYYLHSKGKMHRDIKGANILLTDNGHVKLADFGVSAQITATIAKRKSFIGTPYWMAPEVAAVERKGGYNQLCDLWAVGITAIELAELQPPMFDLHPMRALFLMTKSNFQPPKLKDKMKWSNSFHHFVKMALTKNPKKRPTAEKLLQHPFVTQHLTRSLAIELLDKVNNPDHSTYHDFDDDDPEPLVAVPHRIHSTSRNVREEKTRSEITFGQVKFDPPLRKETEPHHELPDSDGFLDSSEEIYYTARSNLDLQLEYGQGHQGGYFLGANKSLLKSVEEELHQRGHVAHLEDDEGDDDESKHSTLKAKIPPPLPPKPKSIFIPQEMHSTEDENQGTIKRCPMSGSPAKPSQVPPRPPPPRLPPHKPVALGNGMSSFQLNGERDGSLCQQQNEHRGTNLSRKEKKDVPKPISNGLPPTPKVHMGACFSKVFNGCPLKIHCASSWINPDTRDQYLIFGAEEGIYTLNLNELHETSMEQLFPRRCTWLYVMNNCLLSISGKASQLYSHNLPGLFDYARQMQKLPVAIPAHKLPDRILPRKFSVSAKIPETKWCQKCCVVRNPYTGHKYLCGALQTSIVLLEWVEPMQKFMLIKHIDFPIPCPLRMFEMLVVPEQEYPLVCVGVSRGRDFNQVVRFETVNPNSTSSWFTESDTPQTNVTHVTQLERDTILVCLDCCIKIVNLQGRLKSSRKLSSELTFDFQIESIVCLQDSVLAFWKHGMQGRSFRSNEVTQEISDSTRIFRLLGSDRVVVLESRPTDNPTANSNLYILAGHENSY

[2] = target: Tyrosine-protein kinase ABL2 (Homo sapiens, UniProt P42684); assay: Selectivity interaction (KinomeScan (DiscoverX)) EUB0000666a ABL2; details: at 10 µM
[3] = target: T2, Serine/threonine-protein kinase TAO2 (Homo sapiens) (UniProt Q9UL54); assay: Selectivity interaction (ActivX KiNativ screen (ex vivo kinase selectivity in human PBMCs)) EUB0001619a TAOK2; format: cell-based; details: PBMC, at 1 µM
T2 sequence (whole entry): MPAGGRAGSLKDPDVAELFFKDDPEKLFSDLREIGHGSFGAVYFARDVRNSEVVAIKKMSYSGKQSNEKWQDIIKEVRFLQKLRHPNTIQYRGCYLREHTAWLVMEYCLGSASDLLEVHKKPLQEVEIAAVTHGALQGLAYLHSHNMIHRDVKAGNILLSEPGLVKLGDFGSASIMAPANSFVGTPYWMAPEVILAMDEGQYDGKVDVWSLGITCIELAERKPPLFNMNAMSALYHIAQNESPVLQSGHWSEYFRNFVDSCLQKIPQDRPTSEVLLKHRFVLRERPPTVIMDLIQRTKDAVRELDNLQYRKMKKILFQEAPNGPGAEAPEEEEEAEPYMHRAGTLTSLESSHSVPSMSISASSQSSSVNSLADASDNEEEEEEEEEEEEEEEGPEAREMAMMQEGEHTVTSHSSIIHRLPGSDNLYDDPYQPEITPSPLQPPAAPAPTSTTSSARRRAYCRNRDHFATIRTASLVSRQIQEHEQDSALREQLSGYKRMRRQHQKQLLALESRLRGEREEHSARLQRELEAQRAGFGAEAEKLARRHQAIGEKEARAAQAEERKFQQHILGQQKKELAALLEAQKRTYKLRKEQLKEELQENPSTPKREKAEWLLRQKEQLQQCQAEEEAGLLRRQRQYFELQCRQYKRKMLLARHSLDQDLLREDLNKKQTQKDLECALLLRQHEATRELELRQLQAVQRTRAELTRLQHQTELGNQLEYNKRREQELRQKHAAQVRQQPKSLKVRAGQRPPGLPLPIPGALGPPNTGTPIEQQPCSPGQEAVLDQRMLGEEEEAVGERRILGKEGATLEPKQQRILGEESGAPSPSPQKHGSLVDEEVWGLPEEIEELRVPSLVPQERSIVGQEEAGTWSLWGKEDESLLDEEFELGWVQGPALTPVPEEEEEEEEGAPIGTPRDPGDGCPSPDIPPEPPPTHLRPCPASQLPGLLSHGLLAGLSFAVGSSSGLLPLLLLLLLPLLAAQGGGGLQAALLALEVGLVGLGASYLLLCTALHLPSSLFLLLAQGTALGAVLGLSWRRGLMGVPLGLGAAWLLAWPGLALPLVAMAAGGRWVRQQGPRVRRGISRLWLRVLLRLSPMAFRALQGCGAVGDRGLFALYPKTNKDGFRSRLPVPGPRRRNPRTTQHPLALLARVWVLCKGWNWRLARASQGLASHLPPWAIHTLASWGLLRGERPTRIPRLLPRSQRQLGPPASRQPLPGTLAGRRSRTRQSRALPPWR

[4] = target: STE20-like serine/threonine-protein kinase (Homo sapiens, UniProt Q9H2G2); assay: Selectivity interaction (KinomeScan (DiscoverX)) EUB0000607a SLK; details: at 10 µM
STE20-like serine/threonine-protein kinase, sequence (Q9H2G2 whole entry, looked up): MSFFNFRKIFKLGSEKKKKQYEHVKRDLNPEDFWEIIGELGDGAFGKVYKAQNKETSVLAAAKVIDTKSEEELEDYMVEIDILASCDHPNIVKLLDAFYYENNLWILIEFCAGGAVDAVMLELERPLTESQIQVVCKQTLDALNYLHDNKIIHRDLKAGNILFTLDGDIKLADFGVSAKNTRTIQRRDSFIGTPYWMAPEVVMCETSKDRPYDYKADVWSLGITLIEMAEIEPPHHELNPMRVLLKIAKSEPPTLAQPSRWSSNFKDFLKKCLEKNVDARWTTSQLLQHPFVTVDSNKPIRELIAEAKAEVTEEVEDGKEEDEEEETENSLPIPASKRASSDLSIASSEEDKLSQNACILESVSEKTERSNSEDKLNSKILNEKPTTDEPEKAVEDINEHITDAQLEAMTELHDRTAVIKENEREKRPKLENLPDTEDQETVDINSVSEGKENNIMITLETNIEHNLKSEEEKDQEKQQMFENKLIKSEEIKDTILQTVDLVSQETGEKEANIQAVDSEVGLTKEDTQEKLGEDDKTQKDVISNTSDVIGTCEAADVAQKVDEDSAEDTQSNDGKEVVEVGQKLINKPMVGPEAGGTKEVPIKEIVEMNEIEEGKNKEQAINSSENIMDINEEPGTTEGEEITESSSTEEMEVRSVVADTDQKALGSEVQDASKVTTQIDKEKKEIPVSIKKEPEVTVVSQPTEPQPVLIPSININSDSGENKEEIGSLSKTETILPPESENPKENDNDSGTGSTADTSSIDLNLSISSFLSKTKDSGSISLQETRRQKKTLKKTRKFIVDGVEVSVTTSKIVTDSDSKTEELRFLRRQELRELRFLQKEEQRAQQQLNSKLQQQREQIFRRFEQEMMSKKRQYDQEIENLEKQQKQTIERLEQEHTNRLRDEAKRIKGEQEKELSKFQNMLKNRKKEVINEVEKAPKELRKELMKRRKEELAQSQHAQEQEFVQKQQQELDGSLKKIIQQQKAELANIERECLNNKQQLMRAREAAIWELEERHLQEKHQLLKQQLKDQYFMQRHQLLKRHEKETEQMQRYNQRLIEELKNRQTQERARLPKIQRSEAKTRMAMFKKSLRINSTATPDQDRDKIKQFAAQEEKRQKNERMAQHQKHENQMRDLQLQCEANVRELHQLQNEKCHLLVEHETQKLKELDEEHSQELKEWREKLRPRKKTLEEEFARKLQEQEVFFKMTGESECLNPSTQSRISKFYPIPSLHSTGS

Tyrosine-protein kinase ABL2, sequence (P42684 whole entry): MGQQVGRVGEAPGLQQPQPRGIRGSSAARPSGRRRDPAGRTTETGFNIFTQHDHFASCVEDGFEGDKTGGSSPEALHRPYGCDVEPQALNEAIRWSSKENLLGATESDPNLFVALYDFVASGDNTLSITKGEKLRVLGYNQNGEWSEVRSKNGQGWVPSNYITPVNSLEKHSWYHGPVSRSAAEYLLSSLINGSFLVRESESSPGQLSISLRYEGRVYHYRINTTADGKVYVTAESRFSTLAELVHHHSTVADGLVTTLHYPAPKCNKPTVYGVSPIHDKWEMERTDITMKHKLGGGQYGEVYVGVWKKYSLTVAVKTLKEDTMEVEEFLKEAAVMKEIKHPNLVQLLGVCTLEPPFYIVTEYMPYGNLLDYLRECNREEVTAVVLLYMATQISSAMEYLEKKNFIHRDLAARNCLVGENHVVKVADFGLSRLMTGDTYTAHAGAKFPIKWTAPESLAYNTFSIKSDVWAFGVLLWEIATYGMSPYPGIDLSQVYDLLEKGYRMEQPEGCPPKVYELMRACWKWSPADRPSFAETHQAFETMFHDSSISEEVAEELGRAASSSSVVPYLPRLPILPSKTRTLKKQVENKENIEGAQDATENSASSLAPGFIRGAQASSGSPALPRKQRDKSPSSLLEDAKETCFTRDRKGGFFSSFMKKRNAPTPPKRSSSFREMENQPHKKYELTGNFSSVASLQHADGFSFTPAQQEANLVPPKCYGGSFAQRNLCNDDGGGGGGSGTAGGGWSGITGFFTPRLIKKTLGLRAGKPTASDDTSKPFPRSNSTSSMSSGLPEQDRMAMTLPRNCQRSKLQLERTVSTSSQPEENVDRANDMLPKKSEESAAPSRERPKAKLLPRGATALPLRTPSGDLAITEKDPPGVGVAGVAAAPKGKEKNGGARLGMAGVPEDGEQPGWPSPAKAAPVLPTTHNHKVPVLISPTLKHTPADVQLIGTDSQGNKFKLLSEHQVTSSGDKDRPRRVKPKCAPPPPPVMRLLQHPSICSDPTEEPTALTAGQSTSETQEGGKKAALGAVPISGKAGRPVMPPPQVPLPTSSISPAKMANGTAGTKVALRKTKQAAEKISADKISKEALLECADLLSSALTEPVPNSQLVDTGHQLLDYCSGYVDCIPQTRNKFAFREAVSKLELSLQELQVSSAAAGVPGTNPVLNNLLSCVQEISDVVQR

## COc1cc(N(C)c2ccnc3ccc(C(F)(F)F)cc23)cc(OC)c1OC
[1]
  % binding: 87%

## O=C(NOC[C@H](O)CO)c1ccc(F)c(F)c1Nc1ccc(I)cc1F
[2]
  % of control: 90%

## N#Cc1cccc(-c2c[nH]c3ncnc(N4CCOCC4)c23)c1
[3]
  % of inhibition: -3%

## CNC(=O)Nc1ccc(-c2nc(N3CC4CCC(C3)O4)c3cnn(C4CCC5(CC4)OCCO5)c3n2)cc1
[4]
  % of control: 100%
